Here are results for three compounds from patent US8569501B2, “Semiconductor materials and methods of preparation and use thereof” (BASF SE, priority 2008, dated 2013).

Converted amounts (≈) assume the structure as drawn.

This series is described as follows: Solubility in organic solvents. It counts as physicochemical. Conditions: in dichlorobenzene at 60° C. An excerpt: All of the mono-bromo mono-cyano perylenes and dimeric perylenes are sufficiently soluble for processing in conventional organic solvents such as chloroform, xylene, dichlorobenzene, and anisole.
With `CCCCC(C)N1C(=O)c2ccc3c4c(-c5ccc(-c6ccc(-c7cc8c9c(ccc%10c%11c(C#N)cc%12c%13c(ccc(c7c9%10)c%13%11)C(=O)N(C(C)CCCC)C%12=O)C(=O)N(C(C)CCCC)C8=O)s6)s5)cc5c6c(ccc(c7c(C#N)cc(c2c37)C1=O)c64)C(=O)N(C(C)CCCC)C5=O` (stereo not drawn) [BPDI(1MP)-BT, 5,5′-bis-[N,N′-bis(1-methylpentyl)-1-cyanoperylene-3,4:9,10-bis(dicarboxiimide)-7-yl]-2,2′-bithiophene], the Solubility – broadly, the concentration that dissolves in the medium under given conditions – stood at 33900 µg/mL (≈ 25.5 mM).

Take `CCCCC(CC)CN1C(=O)c2ccc3c4c(-c5ccc(-c6ccc(-c7cc8c9c(ccc%10c%11c(C#N)cc%12c%13c(ccc(c7c9%10)c%13%11)C(=O)N(CC(CC)CCCC)C%12=O)C(=O)N(CC(CC)CCCC)C8=O)s6)s5)cc5c6c(ccc(c7c(C#N)cc(c2c37)C1=O)c64)C(=O)N(CC(CC)CCCC)C5=O` (stereo not drawn) [BPDI(2EH)-BT, 5,5′-bis-[N,N′-bis(2-ethylhexyl)-1-cyanoperylene-3,4:9,10-bis(dicarboxiimide)-7-yl]-2,2′-bithiophene]: the Solubility turned out to be 5500 µg/mL (≈ 3.81 mM). The result for `CCCCCCCCN1C(=O)c2ccc3c4c(-c5ccc(-c6ccc(-c7cc8c9c(ccc%10c%11c(C#N)cc%12c%13c(ccc(c7c9%10)c%13%11)C(=O)N(CCCCCCCC)C%12=O)C(=O)N(CCCCCCCC)C8=O)s6)s5)cc5c6c(ccc(c7c(C#N)cc(c2c37)C1=O)c64)C(=O)N(CCCCCCCC)C5=O` [BPDI(8)-BT, 5,5′-bis-[N,N′-bisoctyl-1-cyanoperylene-3,4:9,10-bis(dicarboxiimide)-7-yl]-2,2′-bithiophene] reads 7800 µg/mL (≈ 5.41 mM).
